Measurements taken from ChEMBL document CHEMBL1130254, “Screening solution-phase combinatorial libraries using pulsed ultrafiltration/electrospray mass spectrometry” (J Med Chem, 1997).

Experiments:
[1] = Relative ion enhancement, determined in pulsed ultrafiltration; type: ADME
[2] = molecular target: T1, Adenosine deaminase (Homo sapiens) (UniProt P00813)
T1 sequence (whole entry): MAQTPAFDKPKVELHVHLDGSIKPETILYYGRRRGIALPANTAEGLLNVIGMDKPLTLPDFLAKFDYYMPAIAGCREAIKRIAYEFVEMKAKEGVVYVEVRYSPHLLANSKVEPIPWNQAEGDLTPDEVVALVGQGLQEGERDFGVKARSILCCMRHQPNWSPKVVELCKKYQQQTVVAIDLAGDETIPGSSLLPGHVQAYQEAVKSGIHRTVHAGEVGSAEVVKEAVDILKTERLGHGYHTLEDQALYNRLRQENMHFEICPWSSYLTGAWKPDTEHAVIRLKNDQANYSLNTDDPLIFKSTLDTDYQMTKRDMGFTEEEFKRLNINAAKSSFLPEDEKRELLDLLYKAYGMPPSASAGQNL
Description: Adenosine deaminase inhibition index

Row | Ion enhancement [1] | ([I]/[S]0.5) [2] | SMILES
1 | < 0.01 | 0.069 | CC(O)C(Cc1ccccc1)n1cnc2c(N)ncnc21 (stereo unspecified)
2 | 1 | 0.00042 | CCCCCC[C@@H]([C@@H](C)O)n1cnc2c(N)ncnc21 [EHNA]
3 | 5.3 | 0.00016 | CCCCCCCCC(C(C)O)n1cnc2c(N)ncnc21 (stereo unspecified)
